Test results reported in patent US20220054658A1, “CONJUGATES” (Transfection Holdings Limited, priority 2018, published 2022).
“Also recorded” adds a separate entry of the source.

Tests used:
[1] = test system: mixed culture of wild type nematodes (roundworms, tape worms and flukes); assay: Nematode testing: mixed culture of wild type nematodes; assay type: in vivo; conditions: 20 h incubation
Description: A mixed culture of wild type nematodes (roundworms, tape worms and flukes), obtained from Massey University's sheep farm, were incubated for 20 h with compound 14, compound and commercially available ivermectin B1a, as a control. The protocol followed is the same as the C. elegans protocol used previously.

[2] = test system: C. elegans; assay: Conjugate uptake in C. elegans (dye and praziquantel conjugates, fluorescence microscopy); assay type: in vivo, Caenorhabditis elegans; conditions: 50 μM
Description: Nematode Growth Media (NGM) plates containing C. elegans were washed with 1.0-1.5 mL of standard M9 buffer and the washes were collected in an Eppendorf tube. The liquid containing the C. elegans was then spun for 1 min at room temperature at 10,000 rpm. The supernatant was removed, and fresh M9 buffer was added (500 μL) to generate a new stock solution of M9 buffer containing the C. elegans.
A C. elegans suspension (100 μL) was added a defined amount of M9 buffer (determined by the final desired concentration of compound to be tested: 399 μL in the case of the BODIPY tagged derivatives) contained within a separate Eppendorf tube. To this was then added a 25 mM solution of the compound in DMSO (1 μL). The resulting suspension was mixed using a vortex instrument.
The resulting mixture was incubated at room temperature for 2 to 4 h. in the dark (using aluminium foil to screen the tube, which was also stored in a cabinet).
Other samples were incubated overnight. Here, OP50 bacteria (3 μL) were added to the worms for feeding purposes, and the worms were kept in the dark at 20° C.
After the incubation, the tube contents were mixed gently by hand (typically by simple rotation of the tube), so as to achieve a homogenous suspension. A sample of the suspension (250 μL) was taken and mixed with M9 buffer (500 μL). The resulting suspension was placed in a centrifuge and spun at room temperature at 10,000 rpm for 1 min. The supernatant was removed, and the washing process was repeated twice more, each time using further quantities of fresh M9 buffer (500 μL each time). After the final washing sufficient supernatant was removed so as to leave a final sample volume of approximate 30 μL.
A 1.5% agarose solution in water was pre-warmed for 60 to 90 s. in a standard household style microwave (set to Power 4). Two drops of this solution was removed and placed on a glass slide. The glass slide was covered with a second glass slide. After 1 min., the slides were slid carefully apart, with the agarose remaining on one of the slides. Onto this slide was placed an aliquot of the final C. elegans solution (15 to 20 μL). To this was added a 20 mM sodium azide solution (5 μL) to inhibit nematode mobility. Vaseline was then placed around the agarose area before replacing the second slide. The slides were not pressed together.
The nematodes were then analysed using a Zeiss Axiskop 2 Plus microscope with a Hamamatsu Orca-ER (CA 742-95) camera. The images were resolved using OpenLab on a Mac operating system.
Compounds 1-11 were evaluated after 3 h and overnight incubation at a 50 μM concentration using the general uptake protocol described for C. elegans.
In order to compare the ability of a conjugate to improve the uptake of the drug praziquantel, two praziquantel derivatives were generated. Praziquantel was tagged with a BODIPY fluorescent tag (compound 12) and incorporated into a conjugate of the invention (compound 13). Compounds 12 and 13 were evaluated at a concentration of 50 μM using the C. elegans uptake protocol described above for compounds 1-11. Microscopic readings were taken after 3, 24 and 72 h.

[3] = test system: P. falciparum; assay: Plasmodium falciparum testing: uptake by infected and non-infected red blood cells; assay type: cell-based; conditions: 25 μM, 45 minutes, 37° C., synchronised stage and mix-stage cultures
Description: Compounds 1, 5, 9, 10 and 11 were tested for uptake in both synchronised stage and mix-stage cultures at 25 μM concentrations.

[4] = test system: T. brucei; assay: Trypanosoma brucei testing: uptake; assay type: cell-based; conditions: 10-25 μM, 45 minutes, 37° C.
[5] = test system: T. annulata; assay: Theileria annulata testing: uptake; assay type: cell-based; conditions: 1 hour, 37° C.
Description: T. annulata were cultured using RPMI 1640 with 10% Albumax II (Thermo-Fisher) serum. A standard hemocytometer was used to calculate the concentration of cells in the parent culture. […] For each compound and concentration to be tested, 2 mL of the culture were centrifuged at 1,000 rpm for 5 minutes. The medium was removed before the cells were resuspended in 950 μL of complete medium containing the compound to be tested at the desired concentration. This was prepared from a 100 mM stock solution of compound in DMSO. Once the cells were resuspended they were transferred to a 5 well plate (1 mL capacity per well). They were then incubated for 1 hour at 37° C. in an atmosphere of 5% CO2 in air. After the incubations were complete the contents of each well were transferred to a 10 mL centrifuge tube. Cold RPMI 1640 (Thermofisher) or HBSS added to obtain a volume of 5 mL. The suspension was then centrifuged at 1,000 rpm and at 4° C. for 5 minutes. […] After the final washing the pellet of cells was resuspended in a minimum amount of RPMI 1640 and then spotted onto a glass slide. The slide was then covered with a cover slip and analysed using Olympus BX60 UV microscope system with a Spot RT3 camera and Spot Image software with a FITC fluorescent filter.

[6] = test system: L. passim strain PRA-403; assay: Lotmaria passim parasite uptake test; assay type: cell-based; conditions: room temperature, 45 min
Description: 100 mM stock solutions of BODIPY derivatives were prepared with dimethylsulfoxide (DMSO). L passim strain PRA-403 (ATCC) was cultured in modified medium for C. bombi (Tognazzo et al.). The parasite culture was centrifuged, supernatant was removed and 500 μL of L passim medium with compound (final concentration 500, 100, 10 or 1 μM for BODIPY derivatives) or DMSO (0.1%) control was added. Incubated for 45 min at room temperature.
Uptake tests were performed at 1 μM and 100 μM final concentration of CJ-BODIPY derivatives. After incubation at room temperature for 45 min, fluorescence intensities were evaluated using a microplate reader.

[7] = test system: gastrointestinal system (crop, midgut and rectum) of adult honey bees; assay: Honey bee gut uptake test; set-up: species or system Apis mellifera; conditions: 100 μM, 33° C., 45 min
Description: Honey bee (A. mellifera) hives were obtained and allowed to feed ab libitum spring to autumn. During the winter period, pollen mixed with 50% (v/v) sucrose was added to the honey bee hives in order to provide sufficient food. Honey bees were dissected and gastrointestinal system was removed including the crop, midgut and rectum, and added immediately to 500 μL of the delivery vehicle to be tested sample diluted with PBS at 100 μM final concentration or DMSO (0.1%) control. The mixture was incubated for 45 min at 33° C.
The gastrointestinal system (crop, midgut and rectum) of adult honey bees was extracted, and incubated with derivatives 1, 2, 8 and 11 at 100 μM and 33° C. for 45 min.

[8] = test system: M. tuberculosis strain H37Rv; assay: Uptake test in M. tuberculosis; assay type: cell-based, Mycobacterium tuberculosis; conditions: 50 μg/mL (~80 μM), room temperature, 45 min
[9] = test system: B. bovis Texas strain; assay: Short-term uptake test in B. bovis infected RBCs (confocal microscopy); conditions: 25 μM, 37° C., 45 min, ~5% PPE
Description: The parasite culture was centrifuged and washed once with GIT medium. RBC's were pellet down, and 20 μl infected RBC mixture (10 μl packed infected RBC+10 μl GIT) was prepared. Then, 180 μl GIT medium with compound the compound to be evaluated (final concentration 25 μM for BODIPY derivatives and 100 μM for phiLOV derivatives) or DMSO (0.1%)/PBS control was added. The samples were incubated for 45 min at 37° C. (Samples were stained 1 μg/mL diluted Hoechst 33342 in GIT medium). After incubation, the samples were centrifuged and the pellet was washed with GIT medium (3×). A final solution of 50% haematocrit infected RBC mixture was transferred to slides to be observed by confocal laser microscopy (Nikon A1).
Uptake experiments were performed by incubating the parasite (˜5% Parasitized Erythrocytes (PPE)) with each derivative at 25 μM and 37° C. for 45 min. After incubation, the fluorescence intensities were calculated from confocal microscope images.
The phiLOV double mutant (R475G, K476C) was used to generate derivatives P11, P1, P8, and P3 which were tested for uptake in B. bovis Texas strain using phiLOV as a control. The derivatives and the control were incubated at 100 μM and 37° C. for 45 min. After incubation, the samples were analysed under confocal microscopy using Hoeschst 33342 (Thermofisher) as co-stain.

Row | Compound | concentration at which nematodes showed paralysis [1] [µM] | uptake: location of fluorescence in C. elegans ([2]; 3 h incubation) | uptake: location of fluorescence in C. elegans ([2]; 20 h / overnight incubation) | uptake compared to other compounds ([2]; 20 h incubation) | uptake by infected and non-infected red blood cells [3] | uptake in T. annulata [5] | fluorescence in honey bee gut (crop, midgut, rectum) [7] | uptake in M. tuberculosis (fluorescence intensity / microscopy) [8] | uptake compared to compound 1 (% less) [9] [%] | also measured
1 | 4″-O—[(R,Z)-3-(2,2,5,5-Tetramethyl-1,3-dioxane-4-carboxamido)acrylate]avermectin B1a [Compound 14] | 5 |  |  |  |  |  |  |  |  | activity against nematodes relative to ivermectin B1a [1]: enhanced activity against nematodes relative to commercially available ivermectin B1a
2 | CC1=CC(C)=[N+]2C1=Cc1ccc(CCCn3cc(CCNC(=O)CCNC(=O)[C@H](O)C(C)(C)CO)nn3)n1[B-]2(F)F [Compound 9, (R)—N-((((3-[4,4-Difluoro-5,7-dimethyl-4-bora-3a,4a-diaza-s-indacene-3-yl]propyl)-1H-1,2,3-triazol-4-yl)ethylamino)-3-oxopropyl)-2,4-dihydroxy-3,3-dimethylbutanamide] |  | traces of compound 9 were visible in the get cells and to a lesser extent 30 in the pharynx of both the larvae and the adult nematodes | small amounts of fluorescence could be detected in the gut cells of both larval and adult stages | the amount of fluorescence was lower than the enamide derivatives, compounds 1 to 8 | taken up very quickly by both infected and non-infected erythrocytes, with very little difference in uptake between the two sets of red blood cells | taken up by T. annulata; also recorded: taken up more rapidly and fluorescence can be detected at lower concentrations albeit it is also present in the infected lymphocyte |  |  |  | uptake compared to other compounds ([2]; 3 h incubation): the amount of fluorescence was lower than the enamide derivatives, compounds 1 to 8; uptake in T. brucei [4]: taken up much more rapidly and in much higher concentrations than compound 5; also recorded: spread throughout the cell
3 | CC[C@H](C)[C@H]1O[C@]2(CC[C@@H]1C)C[C@@H]1C[C@@H](C/C=C(\C)[C@@H](O[C@H]3C[C@H](OC)[C@@H](O[C@H]4C[C@H](OC)[C@@H](O)[C@H](C)O4)[C@H](C)O3)[C@@H](C)/C=C/C=C3\CO[C@@H]4[C@H](O)C(C)=C[C@@H](C(=O)O1)[C@]34O)O2 [ivermectin B1a, reference compound] | 50 |  |  |  |  |  |  |  |  | 
4 | CC1=CC(C)=[N+]2C1=Cc1ccc(CCCn3cc(CCNC(=O)/C=C\NC(=O)[C@H]4OC(C)(C)OCC4(C)C)nn3)n1[B-]2(F)F [Compound 2, (Z)—N-((((3-[4,4-Difluoro-5,7-dimethyl-4-bora-3a,4a-diaza-s-indacene-3-yl]propyl)-1H-1,2,3-triazol-4-yl)ethylamino)-3-oxoprop-1-enyl)-2,2,5,5-tetramethyl-1,3-dioxane-4-carboxamide] |  | traces of compound 2 were observed in the pharynx, gut cells and gut lumen of the larval stages | fluorescence was localised in the gut cells, gut lumen and to a lesser extent within the pharynx of the larvae |  |  |  | slight fluorescence in midgut and rectum, but none in the crop; also recorded: localised on the surface of the gut, but not inside of it | preferred over their S counterparts; also recorded: highest fluorescence signals; also recorded: fluorescence is localised at the poles | 90 | uptake in L. passim (fluorescence intensity, microplate reader) ([6]; 1 μM and 100 μM): highest reading amongst all the compounds tested; uptake in L. passim (fluorescence microscopy) ([6]; 500 μM): exhibited fluorescence in the parasite's cytosol, with the derivative forming fluorescence dots; fluorescence intensity compared to compound 1 [8]: around 2.5 times
5 | CC1=CC(C)=[N+]2C1=Cc1ccc(CCCN=[N+]=[N-])n1[B-]2(F)F [Compound 11, 3-Azido[4,4-difluoro-5,7-dimethyl-4-bora-3a,4a-diaza-s-indacene-3-yl]propane, reference compound] |  | slight fluorescence after 3 h, focalized in the gut lumen and gut cells | no significant increase in fluorescence even after 20 h incubation |  | diffused into every red blood cell (both infected and non-infected) | diffused indiscriminately | showed only autofluorescence |  | 90 | 
6 | CC1=CC(C)=[N+]2C1=Cc1ccc(CCCn3cc(CCNC(=O)CCNC(=O)[C@@H]4OC(C)(C)OCC4(C)C)nn3)n1[B-]2(F)F [Compound 10, (R)—N-((((3-[4,4-Difluoro-5,7-dimethyl-4-bora-3a,4a-diaza-s-indacene-3-yl]propyl)-1H-1,2,3-triazol-4-yl)ethylamino)-3-oxopropyl)-2,2,5,5-tetramethyl-1,3-dioxane-4-carboxamide] |  | traces of compound 10 were detected in the gut cells and gut lumen of the larvae; also recorded: also visible to a lesser degree in the pharynx of the larvae | fluorescence was visible in the gut cells and in a smaller amount in the pharynx of the larval stages | comparable with the enamide compounds showing the least uptake | not taken up to any visible extent | very limited uptake |  | minimal uptake |  | 
